Test results from US20260256759A1, “CONCOMITANT ADMINISTRATION OF GLUCOCORTICOID RECEPTOR MODULATOR RELACORILANT AND CYP2C8 SUBSTRATES” (priority 2020, published 2026).

Target: T1, CYP2C8 (Homo sapiens, UniProt P10632)
T1 sequence (P10632 1-490): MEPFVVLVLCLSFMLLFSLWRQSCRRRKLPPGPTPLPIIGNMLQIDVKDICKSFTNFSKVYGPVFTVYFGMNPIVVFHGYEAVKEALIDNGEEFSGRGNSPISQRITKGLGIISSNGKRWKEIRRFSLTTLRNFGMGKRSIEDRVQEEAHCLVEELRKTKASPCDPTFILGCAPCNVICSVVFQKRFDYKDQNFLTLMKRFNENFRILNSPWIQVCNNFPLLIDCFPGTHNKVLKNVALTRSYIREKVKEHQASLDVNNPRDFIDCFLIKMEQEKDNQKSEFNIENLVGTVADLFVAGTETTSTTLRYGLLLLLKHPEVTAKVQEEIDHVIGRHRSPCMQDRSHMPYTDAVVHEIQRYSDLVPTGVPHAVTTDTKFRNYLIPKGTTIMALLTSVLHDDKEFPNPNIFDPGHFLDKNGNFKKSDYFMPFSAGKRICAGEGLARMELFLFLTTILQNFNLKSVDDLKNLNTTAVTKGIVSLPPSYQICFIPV
Experiment: Clinical drug-drug interaction study in healthy volunteers (pioglitazone with/without relacorilant)
Details: Treatment E (with relacorilant 350 mg) vs Treatment B (alone)
Description: An open-label, crossover study was conducted in healthy subjects to determine the effect of relacorilant on the plasma exposure of pioglitazone, a known probe substrate CYP2C8. A single dose of 15 mg of pioglitazone was administered alone and pharmacokinetic (PK) samples were collected before dosing (0 hour) and at 0.5, 1, 1.5, 2, 2.5, 3, 4, 6, 8, 12, 18, 24, 36, 48, 60, and 72 hours post-dose. Relacorilant (350 mg) was then administered once a day for 10 consecutive days. On the following day, a single dose of 15 mg of pioglitazone was administered in combination with relacorilant 350 mg and pharmacokinetic (PK) samples were again collected at pre-dose through 72 hours post-dose at the same timepoints as described above. The plasma concentrations of pioglitazone and its metabolite, pioglitazone M4 were evaluated by validated bioanalytical assays on each dosing occasion of pioglitazone.

AUC0-tz, Ratio of Geometric LSMs (Test/Reference): 74.71%
AUCinf, Ratio of Geometric LSMs (Test/Reference): 74.83%
Cmax, Ratio of Geometric LSMs (Test/Reference): 77.82%
SMILES: CCc1ccc(CCOc2ccc(CC3SC(=O)NC3=O)cc2)nc1 (stereo not drawn) [Pioglitazone, pioglitazone]
